Test results from ChEMBL document CHEMBL1151766, “Engineering stabilized vascular endothelial growth factor-A antagonists: synthesis, structural characterization, and bioactivity of grafted analogues of cyclotides” (J Med Chem, 2008).

Key:
[1] = Toxicity in human erythrocytes assessed as hemolytic activity at 50 uM; assay type: cell-based, Erythrocyte; details: read-out: Activity
BaF3 = test: Cytotoxicity against VEGF-A induced mouse BAF3-VEGF-R2 cells at >10 uM; assay type: functional, cell-based

| Structure (SMILES) | hemolysis at 50 µM [1] [%] | Activity (BaF3) |
| --- | --- | --- |
| CC(C)C[C@@H]1NC(=O)CNC(=O)[C@H](CC(N)=O)NC(=O)[C@H](CCCNC(=N)N)NC(=O)[C@H]([C@@H](C)O)NC(=O)[C@@H]2CSSC[C@@H]3NC(=O)[C@H]([C@@H](C)O)NC(=O)CNC(=O)CNC(=O)[C@H](C(C)C)NC(=O)[C@@H]4CSSC[C@H](NC(=O)[C@H]([C@@H](C)O)NC(=O)[C@H](CSSC[C@H](NC(=O)[C@H](C(C)C)NC(=O)[C@@H]5CCCN5C1=O)C(=O)NCC(=O)N[C@@H](CCC(=O)O)C(=O)N[C@@H]([C@@H](C)O)C(=O)N4)NC(=O)CNC(=O)[C@@H]1CCCN1C(=O)[C@H]([C@@H](C)O)NC(=O)[C@H](CC(N)=O)NC3=O)C(=O)N[C@@H](CO)C(=O)N[C@@H](Cc1c[nH]c3ccccc13)C(=O)N1CCC[C@H]1C(=O)N[C@@H](C(C)C)C(=O)N2 [KALATA B1] | 50 | – |
| CC(C)C[C@@H]1NC(=O)CNC(=O)[C@H](CC(N)=O)NC(=O)[C@H](CCCNC(=N)N)NC(=O)[C@H]([C@@H](C)O)NC(=O)[C@H](CS)NC(=O)[C@H](C(C)C)NC(=O)[C@@H]2CCCN2C(=O)[C@H](CCC(=O)O)NC(=O)[C@H](CO)NC(=O)[C@H](CS)NC(=O)[C@H]([C@@H](C)O)NC(=O)[C@H](CS)NC(=O)CNC(=O)[C@@H]2CCCN2C(=O)[C@H]([C@@H](C)O)NC(=O)[C@H](CC(N)=O)NC(=O)[C@H](CS)NC(=O)[C@H]([C@@H](C)O)NC(=O)CNC(=O)CNC(=O)[C@H](C(C)C)NC(=O)[C@H](CS)NC(=O)[C@H]([C@@H](C)O)NC(=O)[C@H](CCC(=O)O)NC(=O)CNC(=O)[C@H](CS)NC(=O)[C@H](C(C)C)NC(=O)[C@@H]2CCCN2C1=O | – | Toxic |
